Source: PMC6071567 (Cold Spring Harbor Molecular Case Studies, 2018)
“Also recorded” adds a separate entry of the source. Read-outs that look alike come from different tables or passages of the source.

Tests used:
CLB-GE = assay: Cell viability by resazurin assay, 72 h; format: cell-based; settings: Homo sapiens
CLB-BAR = assay: Cell viability by resazurin assay, 72 h; format: cell-based; settings: Homo sapiens
KELLY = assay: Cell viability by resazurin assay, 72 h; format: cell-based, human; settings: ALK F1174L, amplified, MYCN amplified
IMR32 = assay: Cell viability by resazurin assay, 72 h; format: cell-based, human; settings: ALK wt, MYCN amplified
SK-N-BE = assay: Cell viability by resazurin assay, 72 h; format: cell-based; settings: Homo sapiens
SK-N-DZ = assay: Cell viability by resazurin assay, 72 h; format: cell-based; settings: Homo sapiens
SK-N-AS = assay: Cell viability by resazurin assay, 72 h; format: cell-based; settings: Homo sapiens
CLB-PE = assay: Cell viability by resazurin assay, 72 h; format: cell-based; settings: Homo sapiens
CLB-GAR = assay: Cell viability by resazurin assay, 72 h; format: cell-based, human; settings: ALK R1275Q, MYCN nonamplified
[1] = test system: ALK-I1171T metastatic neuroblastoma; format: in vivo, human; settings: for Primary tumor volume (MRI): ∼18.8 mL immediately before start

Row | IC50 (SK-N-BE) [nM] | IC50 (SK-N-DZ) [nM] | IC50 (SK-N-AS) [nM] | SMILES | IC50 (CLB-GE) [nM] | IC50 (CLB-BAR) [nM] | IC50 (KELLY) [nM] | IC50 (KELLY; Homo sapiens, Kelly) [nM] | IC50 (IMR32) [nM] | IC50 (IMR32; Homo sapiens, IMR-32, 72 h) [nM] | IC50 (CLB-PE) [nM] | IC50 (CLB-GAR) [nM] | IC50 (CLB-GAR; Homo sapiens) [nM] | Clinical evaluation (CT, MRI, MIBG scintigraphy) ([1]; 21 mo after initiation of ceritinib, 1 yr after surgery) | Primary tumor volume (MRI) ([1]; after 3 mo therapy) [mL] | Primary tumor volume (MRI) ([1]; after 6 mo therapy, prior to surgery) [mL] | Decrease in size of primary tumor (MRI, volumetric) ([1]; after 6.5 mo of ceritinib treatment) [%] | Clinical status ([1]; after 34 mo of continuous ceritinib treatment) | Urinary catecholamines ([1]; after the first 4-wk cycle, 450 mg/m^2 once daily) | Ki-67 positivity of resected tumor ([1]; tumor removed at 7.5 mo of treatment, 27% before treatment) [%]
1 | > 1000 | > 4000 | 353 ± 27 | C[C@@H](Oc1cc(-c2cnn(C3CCNCC3)c2)cnc1N)c1c(Cl)ccc(F)c1Cl [crizotinib] | 234 ± 18 | 54.9 ± 20 | 333 ± 78 | ~330 | 349 ± 45 | > 350 | > 4000 |  |  |  |  |  |  |  |  | 
2 | > 1500 | > 800 | > 3000 | Cc1cc(Nc2ncc(Cl)c(Nc3ccccc3S(=O)(=O)C(C)C)n2)c(OC(C)C)cc1C1CCNCC1 [ceritinib, 5-chloro-N2-(2-isopropoxy-5-methyl-4-(piperidin-4-yl)phenyl)-N4-(2-(isopropylsulfonyl)phenyl)pyrimidine-2,4-diamine] | 131 ± 24 | 36.1 ± 6.2 | 329 ± 36 | ~330 | > 500 | > 350 | > 15000 | 102 ± 16 | ~110 | complete remission at all metastatic sites; also recorded: no residual tumor in the abdomen and complete resolution of metastases at all sites | ~13.8 | ~10.6 | −43.6 | continuous complete remission | decreased to levels below the upper reference limit | 5
